In patent publication US8273775B2, “Non-steroidal brassinosteroid mimetic” (priority 2006, dated 2012):

Test system: gene expression in Col-0 seedling shoots
Assay: Microarray analysis (ATH1 Affymetrix) after BL or abrasin treatment
Type: in vivo, Arabidopsis
Procedure: FIG. 14: Clustering of gene expression profiles by QT-clust analysis. Clusters illustrating the major patterns of the data sets. Points: BIK-30: 30 μM abrasin 30 min; BL-30: 1 μM brassinolide 30 min; DMSO-30: control DMSO 30 min; BIK-120: 30 μM abrasin 120 min; BL-120: 1 μM brassinolide 120 min; DMSO-120: control DMSO 120 min.
Col-0 seeds were germinated vertically on ½ MS medium for 7 days under 16 h light/8 h dark cycles. The seedlings were overlaid with liquid ½ MS medium containing 1 μM brassinolide (BL, Fuji Chemical Industries, Ltd., Toyama, Japan), 30 μM abrasin (BIK, ChemBridge Corporation) and DMSO and treated for 30 and 120 min. The shoot parts were collected for RNA isolation. All sampling points were performed in three independent experiments. RNA was extracted using RNeasy kit (Qiagene). […] total RNA per array was used to hybridise the ATH1 Affymetrix Arabidopsis arrays according to standard procedure. The overrepresentation analyses were performed using BiNGO software (Maere et al., 2005).
We performed a microarray analysis using the Arabidopsis whole genome chip (Affymetix) to determine whether abrasin activated the expression of BR-inducible genes at transcriptional level. Wild-type Col-0 seedlings were exposed to 1 μM BL, 30 μM ABRASIN and DMSO (mock-treatment) for two time points (30 min and 120 min) and the shoot parts were collected for RNA isolation. The analysis of the variance of the normalized gene expression data took in account the variability parameters affecting the expression level: type of hormone treatment, duration of treatment and the interaction between these two.

## CC(C)[C@H](C)[C@@H](O)[C@H](O)[C@@H](C)[C@H]1CC[C@H]2[C@@H]3COC(=O)[C@H]4C[C@H](O)[C@H](O)C[C@]4(C)[C@H]3CC[C@]12C [BL, brassinolide, reference compound]
30 min, 265877_at, Cluster 6
  Fold-change of gene AT2G42380 (bZIP transcription factor family protein): 0.81
30 min, 266124_at, Cluster 8
  Fold-change of gene AT2G45080 (cyclin family protein): 0.84
120 min
  Fold-change AT1G04330 expressed protein: 1.30
  Fold-change AT1G05470 endonuclease/exonuclease/phosphatase family protein: 1.05
  Fold-change AT1G06520 Encodes a membrane associated mitochondrial localized protein: 3.11
  Fold-change AT1G06570 4-hydroxyphenylpyruvate dioxygenase (HPD): 0.27
  Fold-change AT1G10550 xyloglucan:xyloglucosyl transferase: 2.19
  Fold-change AT1G12710 F-box family protein: 2.11
  Fold-change AT1G12750 rhomboid family protein: 0.78
  Fold-change AT1G14130 2-oxoglutarate-dependent dioxygenase: 1.31
  Fold-change AT1G14700 purple acid phosphatase: 0.59
  Fold-change AT1G16640 transcriptional factor B3 family protein: 0.95
  Fold-change AT1G17230 leucine-rich repeat family protein: 0.38
  Fold-change AT1G18020; AT1G17990 [AT1G18020, 12-oxophytodienoate reductase,: 0.50
  Fold-change AT1G19320 pathogenesis-related thaumatin family protein: 0.38
  Fold-change AT1G20350 mitochondrial import inner membrane translocase subunit: 1.08
  Fold-change AT1G21050 expressed protein: 0.22
  Fold-change AT1G21760 F-box family protein: 0.60
  Fold-change AT1G22360 UDP-glucoronosyl/UDP-glucosyl transferase family protein: 0.29
  Fold-change AT1G23080 auxin efflux carrier protein (PIN7): 0.48
  Fold-change AT1G26800 zinc finger (C3HC4-type RING finger) family protein,: 6.09
  Fold-change AT1G27730 zinc finger (C2H2 type) family protein: 0.71
  Fold-change AT1G28130 encodes an IAA-amido synthase: 0.28
  Fold-change AT1G28190 expressed protein: 0.58
  Fold-change AT1G28480 glutaredoxin family protein: 1.38
  Fold-change AT1G31040 zinc-binding protein-related: 1.12
  Fold-change AT1G31310 hydroxyproline-rich glycoprotein family protein: 0.74
  Fold-change AT1G31770 ABC transporter family protein: 0.64
  Fold-change AT1G32190 expressed protein: 0.11
  Fold-change AT1G32690 expressed protein: 0.48
  Fold-change AT1G36940 expressed protein: 0.38
  Fold-change AT1G49780 U-box domain-containing protein: 0.28
  Fold-change AT1G53870; AT1G53890 [AT1G53870, expressed protein: 0.77
  Fold-change AT1G54050 17.4 kDa class III heat shock protein (HSP17.4-CIII): 3.58
  Fold-change AT1G54200 expressed protein: 2.06
  Fold-change AT1G55920 serine O-acetyltransferase: 1.01
  Fold-change AT1G57560 myb family transcription factor (MYB50): 2.45
  Fold-change AT1G59590 expressed protein: 1.03
  Fold-change AT1G59660 nucleoporin family proteinmily: 3.15
  Fold-change AT1G62300 WRKY family transcription factor: 0.21
  Fold-change AT1G63050 membrane bound O-acyl transferase (MBOAT) family protein: 0.40
  Fold-change AT1G66160 U-box domain-containing protein,: 1.22
  Fold-change AT1G66890 expressed protein: 0.34
  Fold-change AT1G68330 expressed protein: 1.74
  Fold-change AT1G68810 basic helix-loop-helix (bHLH) family protein: 0.83
  Fold-change AT1G69160 expressed protein: 0.59
  Fold-change AT1G70990 proline-rich family protein: 2.22
  Fold-change AT1G71030 Encodes a putative myb family transcription factor: 0.13
  Fold-change AT1G72060 expressed protein: 0.92
  Fold-change AT1G72180 leucine-rich repeat transmembrane protein kinase: 0.22
  Fold-change AT1G72800 nuM1-related, contains: 2.85
  Fold-change AT1G75270 dehydroascorbate reductase: 1.66
  Fold-change AT1G75500 nodulin MtN21 family protein: 0.56
  Fold-change AT1G76240 expressed protein,: 0.16
  Fold-change AT1G76410 zinc finger (C3HC4-type RING finger): 0.43
  Fold-change AT1G79110 expressed protein: 0.77
  Fold-change AT1G79630 protein phosphatase 2C family protein: 0.37
  Fold-change AT1G80440 kelch repeat-containing F-box family protein: 2.93
  Fold-change AT2G01300 expressed protein: 4.83
  Fold-change AT2G01990 expressed protein,: 1.06
  Fold-change AT2G04240 zinc finger (C3HC4-type RING finger) family protein: 2.81
  Fold-change AT2G05540 glycine-rich protein: 0.46
  Fold-change AT2G12290; AT4G19700 [AT2G12290, expressed protein]; [AT4G19700, expressed protein]: 0.55
  Fold-change AT2G18010 auxin-responsive family protein (SAUR10): 9.13
  Fold-change AT2G19800 expressed protein: 1.78
  Fold-change AT2G22860 phytosulfokines 2 (PSK2): 0.44
  Fold-change AT2G23180 cytochrome P450, putative: 0.42
  Fold-change AT2G23320 WRKY family transcription factor: 0.50
  Fold-change AT2G26530 expressed protein: 0.86
  Fold-change AT2G26710 cytochrome p450 family (BAS1): 5.42
  Fold-change AT2G28510 Dof-type zinc finger domain-containing protein: 0.51
  Fold-change AT2G29340 short-chain dehydrogenase/reductase (SDR) family protein: 1.29
  Fold-change AT2G29990 pyridine nucleotide-disulphide oxidoreductase family protein: 0.48
  Fold-change AT2G30070 potassium transporter (KUP1): 0.38
  Fold-change AT2G31230 encodes a member of the ERF (ethylene response factor): 2.74
  Fold-change AT2G34650 protein kinase PINOID (PID): 3.26
  Fold-change AT2G36220 expressed protein: 2.62
  Fold-change AT2G37590 Dof-type zinc finger domain-containing protein: 1.19
  Fold-change AT2G38470 WRKY family transcription factor: 0.57
  Fold-change AT2G39710 aspartyl protease family protein: 1.00
  Fold-change AT2G40340; AT2G40350 [AT2G40340, encodes a member of the DREB subfamily A-2 of ERF/AP2: 1.68
  Fold-change AT2G41250 haloacid dehalogenase-like hydrolase family protein: 0.44
  Fold-change AT2G41640 expressed protein: 1.43
  Fold-change AT2G42280 basic helix-loop-helix (bHLH) family protein: 0.41
  Fold-change AT2G43060 expressed protein, similar to cDNA bHLH transcription factor: 0.36
  Fold-change AT2G43280 far-red impaired responsive family protein: 0.51
  Fold-change AT2G43290 calmodulin-like protein (MSS3): 2.99
  Fold-change AT2G44130 kelch repeat-containing F-box family protein: 6.30
  Fold-change AT2G44500 expressed protein: 2.06
  Fold-change AT2G45210 auxin-responsive protein-related: 0.21
  Fold-change AT2G45680 TCP family transcription factor: 0.82
  Fold-change AT2G46225 Encodes a subunit of the WAVE complex: 0.47
  Fold-change AT2G47440 DNAJ heat shock N-terminal domain-containing protein: 2.23
  Fold-change AT3G04210 disease resistance protein (TIR-NBS class), putative,: 1.00
  Fold-change AT3G09920 phosphatidylinositol-4-phosphate 5-kinase family protein: 0.42
  Fold-change AT3G12920 expressed protein: 0.41
  Fold-change AT3G13040 myb family transcription factor: 0.54
  Fold-change AT3G13510 expressed protein: 0.83
  Fold-change AT3G13980 expressed protein: 0.45
  Fold-change AT3G14370 protein kinase family protein: 3.50
  Fold-change AT3G14560 expressed protein: 0.50
  Fold-change AT3G16570 rapid alkalinization factor (RALF) family protein: 0.87
  Fold-change AT3G17860 expressed protein: 0.74
  Fold-change AT3G18830 polyol/cyclitol/monosaccharide-H+-symporte: 1.14
  Fold-change AT3G19380 U-box domain-containing protein: 0.27
  Fold-change AT3G23030 auxin-responsive protein/indoleacetic acid-induced protein 2 (IAA2): 0.39
  Fold-change AT3G23550 MATE efflux family protein: 0.31
  Fold-change AT3G25710 basic helix-loop-helix (bHLH) family protein: 0.53
  Fold-change AT3G25900 homocysteine S-methyltransferase 1 (HMT-1): 2.22
  Fold-change AT3G26910 hydroxyproline-rich glycoprotein family protein: 0.60
  Fold-change AT3G30180 cytochrome p450 enzyme: 0.07
  Fold-change AT3G46880 expressed protein,: 0.60
  Fold-change AT3G47800 aldose 1-epimerase family protein: 0.26
  Fold-change AT3G48970 copper-binding family protein: 0.59
  Fold-change AT3G49810 U-box domain-containing protein: 0.56
  Fold-change AT3G50650 scarecrow-like transcription factor 7 (SCL7): 1.82
  Fold-change AT3G50660 steroid 22-alpha-hydroxylase (CYP90B1) (DWF4): 0.02
  Fold-change AT3G50750 brassinosteroid signalling positive regulator-related (BEH1): 0.35
  Fold-change AT3G52490 heat shock protein-related: 1.08
  Fold-change AT3G53810 lectin protein kinase: 1.19
  Fold-change AT3G54950 patatin-related,: 0.39
  Fold-change AT3G55120 chalcone-flavanone isomerase: 0.68
  Fold-change AT3G55150 exocyst subunit EXO70 family protein: 0.13
  Fold-change AT3G55840 expressed protein: 7.41
  Fold-change AT3G61460 zinc finger (C3HC4-type RING finger) family protein (BRH1): 0.43
  Fold-change AT3G63300 expressed protein: 1.13
  Fold-change AT4G01680 myb family transcription factor (MYB55): 0.14
  Fold-change AT4G02410 lectin protein kinase family protein: 0.59
  Fold-change AT4G08040 1-aminocyclopropane-1-carboxylate synthase, putative: 0.02
  Fold-change AT4G09460 myb family transcription factor: 2.76
  Fold-change AT4G12390 invertase/pectin methylesterase inhibitor family protein: 0.66
  Fold-change AT4G12410 auxin-responsive family protein: 0.44
  Fold-change AT4G14130 xyloglucan:xyloglucosyl transferase: 0.08
  Fold-change AT4G15975 zinc finger (C3HC4-type RING finger) family protein: 1.05
  Fold-change AT4G16146 expressed protein: 0.55
  Fold-change AT4G16563 aspartyl protease family protein: 2.89
  Fold-change AT4G16670 expressed protein: 0.35
